From publication PMC4828312 (Journal of neurochemistry, 2016)

Tests used:
[1] = target: tubulin dimer; experiment: Surface plasmon resonance; assay type: binding, Porcine; details: peptides injected at 10 nM – 500 µM; three independent experiments; Fig. 2D
[2] = target: assembled MTs (containing ~25% of TUBB3); experiment: Surface plasmon resonance; assay type: binding, Porcine; details: peptides injected at 10 nM – 500 µM; three independent experiments; Fig. 2D
[3] = system: cortical neurons; experiment: Length of neuronal processes; assay type: cell-based, rat; details: gp120s (all 5 nM) in combination with Helix-A peptide or Helix-A nano (5 µM each), 24 hr; three independent experiments
[4] = system: primary cortical neurons; experiment: Cell viability, Hoechst/PI co-staining; assay type: cell-based, rat; details: gp120s in combination with Helix-A nano or Helix-A peptide, 24 hr; three separate experiments, n=200 neurons each group; Fig. 6A
[5] = system: cortical neurons; experiment: LDH release; assay type: cell-based, rat; details: gp120s in combination with Helix-A nano or Helix-A peptide, 24 hr; three separate experiments; Fig. 6B
[6] = target: recombinant TUBB3 (Homo sapiens, UniProt Q13509); experiment: Surface plasmon resonance; assay type: binding; details: peptides injected at 10 nM – 500 µM; three independent experiments; Fig. 2D
[7] = system: CXCR4; details: cited from earlier work

recombinant TUBB3, sequence (Q13509 whole entry): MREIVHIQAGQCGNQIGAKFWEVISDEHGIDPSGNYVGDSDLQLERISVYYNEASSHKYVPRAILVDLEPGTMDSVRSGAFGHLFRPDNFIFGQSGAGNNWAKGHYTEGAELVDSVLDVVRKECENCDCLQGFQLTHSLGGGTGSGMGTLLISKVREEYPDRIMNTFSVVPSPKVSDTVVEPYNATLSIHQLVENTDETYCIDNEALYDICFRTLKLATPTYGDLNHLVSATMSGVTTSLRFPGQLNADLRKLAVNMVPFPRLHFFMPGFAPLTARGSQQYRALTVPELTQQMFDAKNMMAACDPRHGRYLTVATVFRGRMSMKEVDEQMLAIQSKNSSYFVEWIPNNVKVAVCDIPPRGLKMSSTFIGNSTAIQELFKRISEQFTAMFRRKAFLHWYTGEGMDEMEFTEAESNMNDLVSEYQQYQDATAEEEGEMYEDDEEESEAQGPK

With NDMVEQMHEDIISLWDQSLK [Helix-A] the “Binding of peptide to tubulin dimer by SPR” value [1] was “in the higher micromole range”, the “Binding of peptide to assembled MTs by SPR” value [2] was “in the higher micromole range” and the “Prevention of gp120-mediated neurite pruning” value [3] was “but not Helix-A peptide prevented the gp120-mediated neurite pruning”. The “Prevention of gp120-induced neuronal loss, Hoechst/PI staining” value [4] was “but not Helix-A peptide abolished all neurotoxic effects of gp120” and the “Prevention of gp120-induced neuronal loss, LDH release” value [5] was “but not Helix-A peptide abolished all neurotoxic effects of gp120”.
In the case of RAKWNNTLKQIASK [Helix-B], the “Binding of peptide to TUBB3 by SPR” value [6] is reported as “but not Helix-B peptide binds to TUBB3”.
In the case of c1cc(CN2CCCNCCNCCCNCC2)ccc1CN1CCCNCCNCCCNCC1 [AMD3100], the “Internalization of gp120” value ([7]; ref Bachis et al. 2003) is given as “bloked” and the gp120 toxicity ([7]; ref Melli et al. 2006, Meucci et al. 1998) is given as “prevents gp120 toxicity”.
